Counter-ions that a name gives are not always drawn.
Each compound was assayed against T1, H3 receptor (Rattus norvegicus, UniProt Q9QYN8) (assay: Rat H3 receptor binding test (N-α-methyl[3H]histamine, frontal cortex membrane fraction)). Conditions: N-α-methyl[3H]histamine 0.75 nM, room temperature, an hour.
T1 construct: The frontal cortex dissected from rats was homogenized; from tissue; host or cells: rat frontal cortex membrane fraction
Procedure: (Test 1: Rat H3 Receptor Binding Test)
The frontal cortex dissected from rats was homogenized with a Teflon (registered trademark) homogenizer in a 50 mM Tris-HCl buffer solution (pH 7.4) containing a protease inhibitor (Complete EDTA-free; Roche Diagnostics) and 5 mM EDTA. The homogenate was centrifuged at 48,000×g for 15 minutes. The supernatant was removed and the pellet was suspended in a 50 mM Tris-HCl buffer solution (pH 7.4) containing 5 mM EDTA and centrifuged at 48,000×g for 15 minutes. The supernatant was removed and the pellet was suspended in a 50 mM Tris-HCl buffer solution (pH 7.4) containing 5 mM EDTA to give a membrane fraction. The membrane fraction (the protein content in the final reaction mixture: 75 μg), N-α-methyl[^3H]histamine (PerkinElmer; final concentration: 0.75 nM) and a test drug were mixed and subjected to reaction at room temperature for an hour. After the end of the reaction, the reaction mixture was suction filtered through a 96-well GF/C filter plate pretreated with 0.3% polyethyleneimine; the filters were then washed five times with a 50 mM Tris-HCl buffer solution (pH 7.4) containing 5 mM EDTA. After the washing, the filters were dried and a scintillator was added to measure the residual radioactivity on the filter with TopCount (PerkinElmer).
The residual radioactivity in the presence of 10 μM thioperamide was taken as indicative of nonspecific binding and the difference from the residual radioactivity in the absence of thioperamide was taken as indicative of specific binding. Each of the test drugs was dissolved and diluted in DMSO at varying concentrations to plot a dose-response curve from the corresponding residual radioactivities; the concentration of test drug that inhibited the specific binding by 50% (IC50) was determined from this curve.

T1 sequence (Q9QYN8 whole entry): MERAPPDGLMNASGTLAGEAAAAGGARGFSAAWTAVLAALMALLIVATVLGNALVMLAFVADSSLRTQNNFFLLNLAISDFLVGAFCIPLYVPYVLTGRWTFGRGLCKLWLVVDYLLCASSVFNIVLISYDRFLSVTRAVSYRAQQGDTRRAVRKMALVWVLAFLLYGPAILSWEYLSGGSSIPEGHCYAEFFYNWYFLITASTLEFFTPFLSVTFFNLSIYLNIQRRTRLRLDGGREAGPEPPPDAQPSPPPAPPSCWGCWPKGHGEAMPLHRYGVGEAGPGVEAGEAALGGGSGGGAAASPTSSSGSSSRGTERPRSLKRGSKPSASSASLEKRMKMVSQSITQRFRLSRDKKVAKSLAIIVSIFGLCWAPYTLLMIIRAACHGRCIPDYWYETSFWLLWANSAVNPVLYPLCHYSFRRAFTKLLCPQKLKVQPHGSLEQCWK

Row | IC50 | Compound
1 | 5.3 nM | CCOC(=O)c1cn(-c2ccc(OC3CCN(C4CCC4)CC3)cc2)nn1 [Compound No. 1, ethyl 1-{4-[(1-cyclobutylpiperidin-4-yl)oxy]phenyl}-1H-1,2,3-triazole-4-carboxylate]
2 | 132 nM | O=C(O)c1cn(-c2ccc(OC3CCN(C4CCC4)CC3)cc2)nn1 [Compound No. 17, 1-{4-[(1-cyclobutylpiperidin-4-yl)oxy]phenyl}-1H-1,2,3-triazole-4-carboxylic acid hydrochloride]
3 | 18 nM | NC(=O)c1cn(-c2ccc(OC3CCN(C4CCC4)CC3)cc2)nn1 [Compound No. 20, 1-{4-[(1-cyclobutylpiperidin-4-yl)oxy]phenyl}-1H-1,2,3-triazole-4-carboxamide]
4 | 7.4 nM | CCOC(=O)c1cn(-c2ccc(OCCCN3CCC[C@H]3C)cc2)nn1 [Compound No. 24, ethyl 1-(4-{3-[(2R)-2-methylpyrrolidin-1-yl]propoxy}phenyl)-1H-1,2,3-triazole-4-carboxylate]
5 | 5.5 nM | CN(C)C(=O)c1cn(-c2ccc(OC3CCN(C4CCC4)CC3)cc2)nn1 [Compound No. 26, 1-{4-[(1-cyclobutylpiperidin-4-yl)oxy]phenyl}-N,N-dimethyl-1H-1,2,3-triazole-4-carboxamide]
6 | 70 nM | CCOC(=O)c1cn(-c2ccc(OC3CCN(C(C)(C)C)CC3)cc2)nn1 [Compound No. 27, ethyl 1-{4-[(1-tert-butylpiperidin-4-yl)oxy]phenyl}-1H-1,2,3-triazole-4-carboxylate]
7 | 33 nM | CC(C)(C)N1CCC(Oc2ccc(-n3cc(C(=O)N4CCCC4)nn3)cc2)CC1 [Compound No. 28, (1-{4-[(1-tert-butylpiperidin-4-yl)oxy]phenyl}-1H-1,2,3-triazol-4-yl)(pyrrolidin-1-yl)methanone]
8 | 48 nM | CC(C)(C)N1CCC(Oc2ccc(-n3cc(C(=O)N4CCC4)nn3)cc2)CC1 [Compound No. 29, azetidin-1-yl(1-{4-[(1-tert-butylpiperidin-4-yl)oxy]phenyl}-1H-1,2,3-triazol-4-yl)methanone]
9 | 126 nM | CNC(=O)c1cn(-c2ccc(OC3CCN(C(C)(C)C)CC3)cc2)nn1 [Compound No. 30, 1-{4-[(1-tert-butylpiperidin-4-yl)oxy]phenyl}-N-methyl-1H-1,2,3-triazole-4-carboxamide]
10 | 122 nM | CC(C)(C)N1CCC(Oc2ccc(-n3cc(C(N)=O)nn3)cc2)CC1 [Compound No. 31, 1-{4-[(1-tert-butylpiperidin-4-yl)oxy]phenyl}-1H−1,2,3-triazole-4-carboxamide]
11 | 67 nM | CC(C)(C)N1CCC(Oc2ccc(-n3cc(C#N)nn3)cc2)CC1 [Compound No. 32, 1-{4-[(1-tert-butylpiperidin-4-yl)oxy]phenyl}-1H-1,2,3-triazole-4-carbonitrile]
12 | 4.5 nM | CCOC(=O)c1ncn(-c2ccc(OC3CCN(C4CCC4)CC3)cc2)n1 [Compound No. 33, ethyl 1-{4-[(1-cyclobutylpiperidin-4-yl)oxy]phenyl}-1H-1,2,4-triazole-3-carboxylate]
13 | 7.7 nM | CC(=O)c1cn(-c2ccc(OC3CCN(C4CCC4)CC3)cc2)nn1 [compound 5, 1-(1-[4-[(1-cyclobutylpiperidin-4-yl)oxy]phenyl}-1H-1,2,3-triazol-4-yl)ethanone]
14 | 12 nM | CC(C)(O)c1cn(-c2ccc(OC3CCN(C4CCC4)CC3)cc2)nn1 [compound 6, 2-(1-{4-[(1-cyclobutylpiperidin-4-yl)oxy]phenyl}-1H-1,2,3-triazol-4-yl)propan-2-ol]
15 | 4.9 nM | CC(C)(C)c1cn(-c2ccc(OC3CCN(C4CCC4)CC3)cc2)nn1 [compound 7, 4-[4-(4-tert-butyl-1H-1,2,3-triazol-1-yl)phenoxy]-1-cyclobutylpiperidine]

The next lines start with the compound.

Row | Compound | IC50
16 | COCc1cn(-c2ccc(OC3CCN(C4CCC4)CC3)cc2)nn1 [Compound No. 2, 1-cyclobutyl-4-{4-[4-(methoxymethyl)-1H-1,2,3-triazol-1-yl]phenoxy}piperidine] | 7.4 nM
17 | CCOc1cn(-c2ccc(OC3CCN(C4CCC4)CC3)cc2)nn1 [Compound No. 3, 1-cyclobutyl-4-[4-(4-ethoxy-1H-1,2,3-triazol-1-yl)phenoxy]piperidine] | 5.1 nM
18 | c1cc(-n2cc(C3CC3)nn2)ccc1OC1CCN(C2CCC2)CC1 [Compound No. 4, 1-cyclobutyl-4-[4-(4-cyclopropyl-1H-1,2,3-triazol-1-yl)phenoxy]piperidine] | 3.6 nM
19 | O=C(c1cn(-c2ccc(OC3CCN(C4CCC4)CC3)cc2)nn1)N1CCC1 [Compound No. 18, azetidin-1-yl(1-{4-[(1-cyclobutylpiperidin-4-yl)oxy]phenyl}-1H-1,2,3-triazol-4-yl)methanone] | 14 nM
20 | N#Cc1cn(-c2ccc(OC3CCN(C4CCC4)CC3)cc2)nn1 [Compound No. 21, 1-{4-[(1-cyclobutylpiperidin-4-yl)oxy]phenyl}-1H-1,2,3-triazole-4-carbonitrile hydrochloride] | 13 nM
21 | c1cn(-c2ccc(OC3CCN(C4CCC4)CC3)cc2)nn1 [Compound No. 23, 1-cyclobutyl-4-[4-(1H-1,2,3-triazol-1-yl)phenoxy]piperidine] | 17 nM
22 | O=C(c1cn(-c2ccc(OC3CCN(C4CCC4)CC3)cc2)nn1)N1CCOCC1 [Compound No. 25, (1-{4-[(1-cyclobutylpiperidin-4-yl)oxy]phenyl}-1H-1,2,3-triazol-4-yl)(morpholin-4-yl)methanone] | 6.4 nM
23 | O=C(c1ncn(-c2ccc(OC3CCN(C4CCC4)CC3)cc2)n1)N1CCCC1 [Compound No. 34, (1-{4-[(1-cyclobutylpiperidin-4-yl)oxy]phenyl}-1H-1,2,4-triazol-3-yl)(pyrrolidin-1-yl)methanone] | 1.3 nM
24 | O=C(c1ncn(-c2ccc(OC3CCN(C4CCC4)CC3)cc2)n1)N1CCC1 [Compound No. 35, azetidin-1-yl(1-{4-[(1-cyclobutylpiperidin-4-yl)oxy]phenyl}-1H-1,2,4-triazol-3-yl)methanone] | 0.5 nM
25 | O=C(c1ncn(-c2ccc(OC3CCN(C4CCC4)CC3)cc2)n1)N1CCCCC1 [Compound No. 36, (1-{4-[(1-cyclobutylpiperidin-4-yl)oxy]phenyl}-1H-1,2,4-triazol-3-yl)(piperidin-1-yl)methanone] | 10 nM
26 | CC(C)(C)NC(=O)c1ncn(-c2ccc(OC3CCN(C4CCC4)CC3)cc2)n1 [Compound No. 37, N-tert-butyl-1-{4-[(1-cyclobutylpiperidin-4-yl)oxy]phenyl}-1H-1,2,4-triazole-3-carboxamide] | 7.3 nM
27 | O=C(O)c1ncn(-c2ccc(OC3CCN(C4CCC4)CC3)cc2)n1 [Compound No. 38, 1-{4-[(1-cyclobutylpiperidin-4-yl)oxy]phenyl}-1H-1,2,4-triazole-3-carboxylic acid hydrochloride] | 158 nM
28 | NC(=O)c1ncn(-c2ccc(OC3CCN(C4CCC4)CC3)cc2)n1 [Compound No. 39, 1-{4-[(1-cyclobutylpiperidin-4-yl)oxy]phenyl}-1H-1,2,4-triazole-3-carboxamide] | 11 nM
29 | CC(=O)c1ncn(-c2ccc(OC3CCN(C4CCC4)CC3)cc2)n1 [Compound No. 40, 1-(1-{4-[(1-cyclobutylpiperidin-4-yl)oxy]phenyl}-1H-1,2,4-triazol-3-yl)ethanone hydrochloride] | 6.4 nM
30 | N#Cc1ncn(-c2ccc(OC3CCN(C4CCC4)CC3)cc2)n1 [Compound No. 41, 1-{4-[(1-cyclobutylpiperidin-4-yl)oxy]phenyl}-1H-1,2,4-triazole-3-carbonitrile] | 6.4 nM

— patent US20150045553A1, “PHENYLTRIAZOLE DERIVATIVE” (TOSHO PHARMACEUTICAL CO., LTD, priority 2011, published 2015)
